Experimental data reported in patent publication US20080090734A1, “DRUG SCREENING AND TARGET IDENTIFICATION USING SPR IMAGING OF TARGET PROTEIN ARRAYS” (The Trustees of California State University, priority 2006, published 2008).

Tests used:
Experiment in all cases: Antibiotic susceptibility profile
Format in all cases: cell-based, Acinetobacter baumannii
Set-up in all cases: key: Resistance; Intermediate; Susceptible
[1] = tested on: A. baumannii clinical isolate LAC 09
Outline: (§1)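 R/I/S calls per drug; panel limited to agents having A. baumannii breakpoints; isolates from hospital-acquired infections, LA County and NYC.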

[2] = tested on: A. baumannii clinical isolate LAC 08
Outline: as §1

[3] = tested on: A. baumannii reference strain SDF
Outline: as §1

[4] = tested on: A. baumannii clinical isolate LAC 17
Outline: as §1

[5] = tested on: A. baumannii clinical isolate NY B
Outline: as §1

[6] = tested on: A. baumannii clinical isolate NY D
Outline: as §1

[7] = tested on: A. baumannii clinical isolate LAC 06
Outline: as §1

[8] = tested on: A. baumannii clinical isolate NY G
Outline: as §1

[9] = tested on: A. baumannii reference strain 17978; settings: strain 17978 (ATCC)
Outline: as §1

[10] = tested on: A. baumannii clinical isolate LAC 12
Outline: as §1

[11] = tested on: A. baumannii clinical isolate NY H
Outline: as §1

[12] = tested on: A. baumannii clinical isolate LAC 15
Outline: as §1

[13] = tested on: A. baumannii clinical isolate LAC 02
Outline: as §1

[14] = tested on: A. baumannii clinical isolate LAC 18
Outline: as §1

[15] = tested on: A. baumannii clinical isolate LAC 16
Outline: as §1

[16] = tested on: A. baumannii clinical isolate LAC 13
Outline: as §1

[17] = tested on: A. baumannii clinical isolate NY C
Outline: as §1

[18] = tested on: A. baumannii clinical isolate LAC 04
Outline: as §1

[19] = tested on: A. baumannii clinical isolate LAC 03
Outline: as §1

[20] = tested on: A. baumannii clinical isolate NY F
Outline: as §1

[21] = tested on: A. baumannii clinical isolate LAC 20
Outline: as §1

[22] = tested on: A. baumannii clinical isolate NY E
Outline: as §1

[23] = tested on: A. baumannii clinical isolate LAC 11
Outline: as §1

[24] = tested on: A. baumannii clinical isolate LAC 01
Outline: as §1

[25] = tested on: A. baumannii clinical isolate LAC 19
Outline: as §1

[26] = tested on: A. baumannii clinical isolate LAC 05
Outline: as §1

[27] = tested on: A. baumannii clinical isolate LAC 07
Outline: as §1

[28] = tested on: A. baumannii reference strain 15839; settings: strain 15839 (ATCC)
Outline: as §1

[29] = tested on: A. baumannii clinical isolate LAC 14
Outline: as §1

[30] = tested on: A. baumannii clinical isolate NY A
Outline: as §1

[31] = tested on: A. baumannii reference strain AYE
Outline: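 Clinical isolates from nosocomial infections in New York City and Los Angeles, tested alongside reference strains against only antibiotics having A. baumannii breakpoints; each scored R (resistant), I (intermediate) or S (susceptible).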

[32] = tested on: A. baumannii reference strain 19606; settings: strain 19606 (ATCC)
Outline: as §1

[33] = tested on: A. baumannii clinical isolate LAC 10
Outline: as §1

Measured: Antibiotic susceptibility

CCN1CCN(C(=O)N[C@@H](C(=O)N[C@@H]2C(=O)N3[C@@H]2SC(C)(C)[C@@H]3C(=O)O)c2ccccc2)C(=O)C1=O [PIP, Piperacillin]
S: [7] | [9]
I: [2] | [26] | [28] | [32]
R: all other assays above

CN(C)[C@@H]1C(O)=C(C(N)=O)C(=O)[C@@]2(O)C(O)=C3C(=O)c4c(O)cccc4[C@@](C)(O)[C@H]3C[C@@H]12 [TET, Tetracycline]
I: [3] | [15] | [18] | [25] | [30] | [32]
S: [9]
R: all other assays above

NC[C@H]1O[C@H](O[C@H]2[C@H](O)[C@@H](O[C@H]3O[C@H](CO)[C@@H](O)[C@H](N)[C@H]3O)[C@H](N)C[C@@H]2N)[C@H](N)C[C@@H]1O [TOB, Tobramycin]
I: [8]
S: [3] | [7] | [9] | [10] | [12] | [16] | [23] | [29] | [32]
R: all other assays above
